Source: patent publication US20140093498A1, “PHARMACEUTICAL COMBINATIONS COMPRISING DUAL ANGIOPOIETIN-2 / DLL4 BINDERS AND ANTI-VEGF-R AGENTS” (BOEHRINGER INGELHEIM INTERNATIONAL GMBH, priority 2012, published 2014)

Experiments:
[1] = tested on: pancreatic cancer (PAXF 546); experiment: PAXF 546 patient-derived tumor xenograft growth in nude mice; assay type: in vivo; conditions: BI-1 13.6 mg/kg i.p. twice weekly, BIBF1120 50 mg/kg p.o. once daily, Bevacizumab 15 mg/kg i.p. twice weekly
Description: (§1) The goal of the present study was to assess the efficacy of BI-1 in combination with Bevacizumab, BIBF1120 or Sunitinib in models of human non small cell lung cancer (LXFE 211, LXFE 1422), colon cancer (CXF 243), mammary cancer (MAXF 401), ovarian cancer (OVXF 1353), pancreatic cancer (PAXF 546) and renal cancer (RXF 1220) in nude mice. All models were patient-derived tumor xenografts (PDX), which were transplanted from patients to nude mice and passaged subcutaneously. These models retain most of the characteristics of the parental patient tumors including histology.
(§2) BI-1 with the sample ID number D11B20V503 was used for this experiment and diluted with PBS. BIBF1120 with the batch chiffre 133562 was suspended in Natrosol 0.5% (Hydroxyethylcellulose Natrosol 250 HX, VWR). […]
(§3) Tumor fragments were obtained from tumor xenografts in serial passage in nude mice. […] Mice were monitored daily. […]
(§4) The doses of BI-1 and Bevacizumab were calculated to the average body weight of all mice on day 1 (28 g) and administered intraperitoneally twice weekly in a volume of 100 μl per mouse. […]
(§5) Tumor diameters were measured twice weekly with a caliper. The volume of each tumor [in mm^3] was calculated according to the formula “tumor volume=length*diameter^2*0.5.” To monitor side effects of treatment, mice were inspected daily for abnormalities and body weight was determined twice weekly. […]

[2] = tested on: mammary cancer (MAXF 401); experiment: MAXF 401 patient-derived tumor xenograft growth in nude mice; assay type: in vivo; conditions: BI-1 13.6 mg/kg i.p. twice weekly, BIBF1120 50 mg/kg p.o. once daily, Bevacizumab 15 mg/kg i.p. twice weekly
Description: as §1, §2, §3, §4, §5

[3] = tested on: human non-small cell lung cancer (NCI-H1975); experiment: Subcutaneous NCI-H1975 xenograft tumor growth in nude mice; assay type: in vivo; conditions: day 14, 2.5 cycles; Bevacizumab 25 mg/kg i.p. twice weekly, BIBF 1120 50 mg/kg p.o. daily, BI-1 13.6 mg/kg i.p. twice weekly
Description: The goal of the present study was to assess the efficacy of BI-1 in combination with Bevacizumab and BIBF 1120 in a model of human non small cell lung cancer (NCI-H1975) in nude mice.
• Model: Subcutaneous xenografts of the human non-small cell lung cancer (NCI-H1975) growing in nude mice
BI-1 with the sample ID number D11B20V503 was used for this experiment and diluted with PBS. BIBF 1120 with the batch chiffre 133562 was suspended in Natrosol 0.5% (Hydroxyethylcellulose Natrosol 250 HX, VWR).
Avastin® (Bevacizumab, 25 mg/ml) was purchased from Roche (Basel, Switzerland), (dissolved in 0.9% saline) was diluted with 0.9% saline.
Mice were 7 week-old female BomTac:NMRI-Foxn1nu purchased from Taconic, Denmark. After arrival, mice were allowed to adjust to ambient conditions for at least 5 days before they were used for the experiments. […]
as §4
Tumor diameters were measured three times a week (Monday, Wednesday and Friday) with a caliper. The volume of each tumor [in mm3] was calculated according to the formula “tumor volume=length*diameter2*π/6.” To monitor side effects of treatment, mice were inspected daily for abnormalities and body weight was determined three times a week (Monday, Wednesday and Friday). […]

[4] = Body weight losses and deaths in PDX tumor-bearing mice; design: species or system nude mice; conditions: mouse, in vivo
Procedure: Tumor diameters were measured twice weekly with a caliper. The volume of each tumor [in mm^3] was calculated according to the formula “tumor volume=length*diameter^2*0.5.” To monitor side effects of treatment, mice were inspected daily for abnormalities and body weight was determined twice weekly. Animals with tumor sizes exceeding 1.5 cm in diameter or 20% body weight loss were euthanized for ethical reasons.

[5] = tested on: ovarian cancer (OVXF 1353); experiment: OVXF 1353 patient-derived tumor xenograft growth in nude mice; assay type: in vivo; conditions: BI-1 13.6 mg/kg i.p. twice weekly, BIBF1120 50 mg/kg p.o. once daily
Description: as §1, §2, §3, §4, §5

[6] = tested on: human non small cell lung cancer (LXFE 1422); experiment: LXFE 1422 patient-derived tumor xenograft growth in nude mice; assay type: in vivo; conditions: BI-1 13.6 mg/kg i.p. twice weekly, BIBF1120 50 mg/kg p.o. once daily, Bevacizumab 15 mg/kg i.p. twice weekly
Description: as §1, §2, §3, §4, §5

colon cancer (CXF 243) = experiment: CXF 243 patient-derived tumor xenograft growth in nude mice; assay type: in vivo; conditions: BI-1 13.6 mg/kg i.p. twice weekly, BIBF1120 50 mg/kg p.o. once daily, Bevacizumab 15 mg/kg i.p. twice weekly
Description: as §1, §2, §3, §4, §5

[7] = tested on: human non small cell lung cancer (LXFE 211); experiment: LXFE 211 patient-derived tumor xenograft growth in nude mice; assay type: in vivo; conditions: BI-1 13.6 mg/kg i.p. twice weekly, BIBF1120 50 mg/kg p.o. once daily, Bevacizumab 15 mg/kg i.p. twice weekly
Description: as §1, §2, §3, §4, §5

renal cancer (RXF 1220) = experiment: RXF 1220 patient-derived tumor xenograft growth in nude mice; assay type: in vivo; conditions: BI-1 13.6 mg/kg i.p. twice weekly, Sunitinib 40 mg/kg once daily, Bevacizumab 15 mg/kg i.p. twice weekly
Description: as §1, §2, §3, §4, §5

Compound: CCS(=O)(=O)O.COC(=O)c1ccc2c(c1)NC(=O)/C2=C(\Nc1ccc(N(C)C(=O)CN2CCN(C)CC2)cc1)c1ccccc1 [BIBF1120, 3-Z-[1-(4-(N-((4-methyl-piperazin-1-yl)-methylcarbonyl)-N-methyl-amino)-anilino)-1-phenyl-methylen]-6-methoxycarbonyl-2-indolinon-monoethanesulfonate]
- TGI [%] [1]: 69%
- TGI [%] [2]: 63%
- median TGI [3]: 75%
- maximum median body weight loss [4]: 5.9%
- TGI [%] [5]: 78%
- TGI [%] [6]: 57%
- TGI [%] (colon cancer (CXF 243)): 65%
- TGI [%] [7]: 40%

Compound: CCN(CC)CCNC(=O)c1c(C)[nH]c(/C=C2\C(=O)Nc3ccc(F)cc32)c1C [Sunitinib]
- TGI [%] (renal cancer (RXF 1220)): 62%

Compound: Bevacizumab: VEGF-neutralizing antibody A4.6.1, also called bevacizumab (Avastin®)
- TGI [%] [1]: 59%
- TGI [%] [2]: 68%
- median TGI [3]: 82%
- maximum median body weight loss [4]: 9.1%
- TGI [%] [6]: 63%
- TGI [%] [7]: 37%
